In the assay the target is T1, CFTR-associated ligand (CAL) PDZ domain (Homo sapiens, UniProt Q9HD26).
T1 construct: gene GOPC; CAL PDZ domain (CALP; UniProt Q9HD26-2)
Briefly: MALDI-TOF MS of covalent adduct; no effect on peptide affinity by FP. Format: binding.

For the compound `CCN1C(=O)C=CC1=O` [EM, N-ethyl-maleimide], the EM is 90–92 % covalent modification.

(Values after article PMC6435542 (Bioscience Reports, 2018).)
